Measurements reported in the CheMixHub viscosity set.
Several values for one entry are separate records, joined by “and”; a condition that tells them apart may be missing. Identical values can stand only once.

Experiment: xn = mol fraction of the nth substance listed

C1CCOC1 + O=C1CCCO1
viscosity [mPa·s]
Conditions | 293.15 K | 298.15 K | 303.15 K | 308.15 K | 313.15 K | 318.15 K | 323.15 K
101 kPa, x1 = 0.1009 | 1.614 | 1.496 | 1.39 | 1.297 | 1.212 | 1.136 | 1.068
101 kPa, x1 = 0.2003 | 1.388 | 1.292 | 1.206 | 1.128 | 1.058 | 0.995 | 0.938
101 kPa, x1 = 0.3008 | 1.203 | 1.123 | 1.052 | 0.987 | 0.93 | 0.877 | 0.83
101 kPa, x1 = 0.4004 | 1.046 | 0.98 | 0.92 | 0.866 | 0.818 | 0.773 | 0.733
101 kPa, x1 = 0.4916 | 0.936 | 0.878 | 0.825 | 0.778 | 0.735 | 0.696 | 0.66
101 kPa, x1 = 0.5991 | 0.809 | 0.761 | 0.717 | 0.677 | 0.641 | 0.608 | 0.578
101 kPa, x1 = 0.6997 | 0.706 | 0.667 | 0.631 | 0.598 | 0.567 | 0.537 | 0.511
101 kPa, x1 = 0.8 | 0.62 | 0.589 | 0.56 | 0.531 | 0.506 | 0.482 | 0.461
101 kPa, x1 = 0.8997 | 0.567 | 0.538 | 0.511 | 0.485 | 0.463 | 0.441 | 0.415
101.33 kPa, x1 = 0.1077 | 1.583 | 1.462 | – | – | – | – | –
101.33 kPa, x1 = 0.3124 | 1.172 | 1.089 | – | – | – | – | –
101.33 kPa, x1 = 0.701 | 0.682 | 0.641 | – | – | – | – | –
101.33 kPa, x1 = 0.8954 | 0.539 | 0.51 | – | – | – | – | –

CC(C)C[P+](C)(CC(C)C)CC(C)C.Cc1ccc(S(=O)(=O)[O-])cc1 + O=S1(=O)CCCC1
Conditions | viscosity [mPa·s]
323.15 K, 101.33 kPa, x1 = 0.5 | 68.5

CCCC[P+](CCCC)(CCCC)CCCC.CS(=O)(=O)[O-] + O=S1(=O)CCCC1
Conditions | viscosity [mPa·s]
313.15 K, 101.33 kPa, x1 = 0.5 | 84.22

c1ccc2ccccc2c1 + O=[N+]([O-])c1ccccc1
viscosity [mPa·s], 101 kPa
Conditions | 303.15 K | 308.15 K | 313.15 K | 318.15 K | 323.15 K
x1 = 0.2952 | 1.646 | 1.544 | 1.44 | 1.329 | 1.231
x1 = 0.4191 | – | 1.578 | 1.45 | 1.346 | 1.252

CC(C)=O + OCCO
293.15 K, 101.33 kPa
Conditions | viscosity [mPa·s]
x2 = 0.1258 | 0.439
x2 = 0.2405 | 0.625
x2 = 0.2517 | 0.651
x2 = 0.3451 | 0.912
x2 = 0.3891 | 1.086
x2 = 0.5257 | 1.91
x2 = 0.6291 | 3.034
x2 = 0.6515 | 3.393
x2 = 0.7734 | 6.123
x2 = 0.8254 | 7.897
x2 = 0.8715 | 9.97
x2 = 0.921 | 13.18

CC[N+](CC)(CC)CC.Cc1ccc(S(=O)(=O)[O-])cc1 + OCCO
101 kPa, x1 = 0.2
Conditions | viscosity [mPa·s]
298.15 K | 51.2
303.15 K | 40.8
308.15 K | 32.8
313.15 K | 24.4
318.15 K | 22.2
323.15 K | 17.4

CC[N+](CC)(CC)CC.Cc1ccc(S(=O)(=O)[O-])cc1 + OCCOCCOCCOCCO
101 kPa, x1 = 0.2
Conditions | viscosity [mPa·s]
298.15 K | 74.7
303.15 K | 57.8
308.15 K | 45.9
313.15 K | 36.9
318.15 K | 30.2
323.15 K | 25

O=S(=O)([O-])[O-].[Mn+2] + [2H]O[2H]
viscosity [mPa·s], 101 kPa
Conditions | x1 = 0.005 | x1 = 0.012 | x1 = 0.02 | x1 = 0.029 | x1 = 0.037
298.15 K | 1.297 | 1.59 | 2.183 | 3.14 | 4.452
308.15 K | 1 | 1.247 | 1.696 | 2.404 | 3.327
318.15 K | 0.827 | 1.008 | 1.371 | 1.912 | 2.575

O=C(O)CBr + [Br-].[Br-].[Br-].[Br-].[Sn+4]
viscosity [mPa·s], 101 kPa
Conditions | x2 = 0.0895 | x2 = 0.2636 | x2 = 0.4794 | x2 = 0.7268 | x2 = 0.9042
313.15 K | 3.74 | 3.07 | 2.48 | 2.04 | 1.88
323.15 K | 3.12 | 2.58 | 2.15 | 1.78 | 1.65

CCCC[P+](CCCC)(CCCC)CCCC.CS(=O)(=O)[O-] + c1c[nH]cn1
101.33 kPa, x1 = 0.5
Conditions | viscosity [mPa·s]
313.05 K | 99.81
323.05 K | 61.32

Cc1ccc(S(=O)(=O)O)cc1 + c1c[nH]cn1
viscosity, 101.33 kPa
Conditions | 303.11 K | 303.14 K | 313.12 K | 313.14 K | 323.13 K | 323.14 K
x2 = 0.78 | 43.59 mPa·s | – | 27.71 mPa·s | – | 18.65 mPa·s | –
x2 = 0.8 | 54.18 mPa·s | 41.78 mPa·s | 34.32 mPa·s | 26.53 mPa·s | – | 20.96 mPa·s and 17.62 mPa·s

C1CCOC1 + c1ccccc1
303.15 K, 101.33 kPa
Conditions | viscosity [mPa·s]
x1 = 0.0997 | 0.547
x1 = 0.1996 | 0.536
x1 = 0.3017 | 0.524
x1 = 0.3993 | 0.514
x1 = 0.5018 | 0.504
x1 = 0.6038 | 0.495
x1 = 0.7011 | 0.484
x1 = 0.8026 | 0.471
x1 = 0.8977 | 0.457
